Article PMC6817585, “Simultaneous Determination of Five Alkaloids by HPLC-MS/MS Combined With Micro-SPE in Rat Plasma and Its Application to Pharmacokinetics After Oral Administration of Lotus Leaf Extract” (Frontiers in Pharmacology, 2019)

Columns and labels:
[1] = Pharmacokinetics of five alkaloids in rat plasma after oral administration of lotus leaf extract; type: in vivo, Male Sprague-Dawley rats; conditions: rat, in vivo, po; for AUC / AUC(0-inf) / Cmax / MRT / MRT inf / Tmax / half-life: male, Sprague-Dawley
Method: All analyses were performed on Agilent 1200 HPLC system (Agilent Corporation, USA) and API 3200 triple-quadrupole mass spectrometer (Concord, Ontario, Canada) in multiple-reaction monitoring (MRM) with positive ionization mode. Acetonitrile (A) and formic acid aqueous solution (B) (0.1%, v/v) is used to separate the analytes on Eclipse plus C18 column (4.6 mm × 100 mm, 1.8 µm) with a guard C18 column (2.1 mm × 12.5 mm, 5 µm). The gradient of elution is as follows: 5%–60% A at 0 to 4 min, 60%–70% A at 4 to 5 min, 70%–93% A at 5 to 7 min, 93%–94% A at 7 to 11 min, 94%–5% A at 11 to 12 min, and 5%–5% A at 12 to 17 min. The flow rate and injection volume are 0.3 ml·min^-1 and 5 µl, respectively. The main parameters of ion source including the ion spray voltage, the curtain gas, and temperature are set at 5000 V, 35 psi, and 450°C, respectively.
The real plasma sample (100 µl) and IS solution (10 µl) were vortex-mixed for 1 min. The sample was carried out with the SPE column (Cleanert PEP-2, 40–60 µm, 60 Å, 10 mg/1 ml; Phenomenex, Torrance, CA, USA). First, SPE columns were activated by 50% methanol in water (1 ml) and 0.1% formic acid in water (1 ml) and were used to activate the SPE column in sequence. Second, columns were washed with 200 µl methanol (20%, v/v) and eluted with acetonitrile (400 µl) after the plasma samples were added. Finally, the eluent was centrifuged for 10 min with 14,000 rpm. Then final solutions were injected into the HPLC-MS/MS and analyzed.
The pharmacokinetic study was conducted in accordance with the Guidelines for the Care and Use of Laboratory Animals by the US National Institutes of Health and approved by the Animal Ethics Committee of Tianjin University of Traditional Chinese Medicine (permit number: TCM-LAEC2019022, Tianjin, China),. Male Sprague-Dawley rats (240–260 g) were fed in the animal laboratory of the Tianjin University of Traditional Chinese Medicine under the standard conditions. These rats were allowed free to get standard laboratory food and water and conformed for 1 week until 12 h before experiment. These rats (n = 10) were fasted, although they were still given water for 12 h, before the oral administration of lotus leaf extract. […] The plasma samples were centrifuged in 10 min at 7000 rpm and kept at −20°C until analyzed.
All of the pharmacokinetic parameters were calculated by one compartment model with DAS 1.0 software (Medical College of Wannan). The maximum drug concentration (Cmax) and the time to reach Cmax (Tmax) were acquired from observed concentration–time profile for oral administration in plasma. All data were shown as mean ± SD.

[2] = Stability of analytes in rat plasma QC samples (auto-sampler, freeze-thaw, short-time, long-term); type: in vitro ADME; conditions: rat, plasma
Method: (§1) The stabilities (including auto-sampler, freeze–thaw cycles, and short-time and long-term stability) of all analytes were obtained by testing QC samples of four concentrations. Moreover, the stabilities for stock and working solution were assessed with mixed standard substance (100 ng·ml^−1) and the QC sample solutions of four concentration levels, respectively. These solutions were achieved by diluting stock solutions kept at 4°C for 2 weeks. For IS, the evaluated procedures of two stabilities were same as the five alkaloids.

[3] = Stability of stock and working solutions; type: physicochemical; conditions: for Remain, working solution: n = 6
Method: as §1

[4] = concentration LLOQ, from stock kept at 4°C for 2 weeks

COc1cc2c3c(c1OC)C1(C=CC(=O)C=C1)C[C@H]3N(C)CC2 [Pronuciferine, pronuciferine]
AUC ([1]; 2.4 g/kg): 2030 ± 717 ng·h/mL | AUC(0-inf) ([1]; 2.4 g/kg): 2100 ± 704 ng·h/mL | Cmax ([1]; 2.4 g/kg): 210 ± 87 ng/mL | MRT ([1]; 2.4 g/kg): 7.43 ± 1.18 h | MRT inf ([1]; 2.4 g/kg): 8.36 ± 1.98 h | Tmax ([1]; 2.4 g/kg): 4.9 ± 1.37 h | half-life ([1]; 2.4 g/kg): 4.44 ± 1.88 h | Absorption after orally administrating the lotus leaf extract (in words) [1]: slow absorption | Plasma exposure (in words) [1]: abundant plasma exposure | AUCs(0–24 h) ([1]; 2.4 g/kg): 2030 ± 716 ng·h/mL | Remain, freeze thaw cycles [2]: 81.9% | Remain, freeze thaw cycles ([2]; 2 ng/ml): 93.3% | Remain, freeze thaw cycles ([2]; 100 ng/ml): 85.5% | Remain, freeze thaw cycles ([2]; 500 ng/ml): 87.2% | Remain, −80°C for 1 month [2]: 99.2% | Remain, −80°C for 1 month ([2]; 2 ng/ml): 99.0% | Remain, −80°C for 1 month ([2]; 100 ng/ml): 93.9% | Remain, −80°C for 1 month ([2]; 500 ng/ml): 90.4% | Remain, autosampler for 24 h [2]: 85.5% | Remain, room temperature for 24 h [2]: 89.2% | Remain, autosampler for 24 h ([2]; 2 ng/ml): 88.3% | Remain, room temperature for 24 h ([2]; 2 ng/ml): 106% | Remain, autosampler for 24 h ([2]; 100 ng/ml): 92.6% | Remain, room temperature for 24 h ([2]; 100 ng/ml): 98.9% | Remain, autosampler for 24 h ([2]; 500 ng/ml): 87.5% | Remain, room temperature for 24 h ([2]; 500 ng/ml): 87.1% | Remain, working solution ([3]; 2 ng/ml): 92.9% | Remain, working solution ([3]; 100 ng/ml): 99.9% | Remain, working solution ([3]; 500 ng/ml): 105% | Remain, working solution [3, 4]: 99.3%

COc1cc2c(cc1OC)-c1cc3ccc(OC)c(OC)c3c[n+]1CC2 [IS, palmatine chloride, reference compound]
Remain, stock solution ([3]; stock solution kept at 4°C for 2 weeks): 114%

COc1cc2c(cc1OC)C(Cc1ccc(O)cc1)N(C)CC2 (centres unmarked) [Armepavine, armepavine]
AUC ([1]; 2.4 g/kg): 28.6 ± 16.5 ng·h/mL | AUC(0-inf) ([1]; 2.4 g/kg): 53.8 ± 34.6 ng·h/mL | Cmax ([1]; 2.4 g/kg): 8.78 ± 7.78 ng/mL | MRT ([1]; 2.4 g/kg): 7.23 ± 1.93 h | MRT inf ([1]; 2.4 g/kg): 31.9 ± 25.9 h | Tmax ([1]; 2.4 g/kg): 0.3 ± 0.11 h | half-life ([1]; 2.4 g/kg): 5.22 ± 5.09 h | Absorption after orally administrating the lotus leaf extract (in words) [1]: fast absorption | Remain, freeze thaw cycles [2]: 103% | Remain, freeze thaw cycles ([2]; 1 ng/ml): 107% | Remain, freeze thaw cycles ([2]; 20 ng/ml): 111% | Remain, freeze thaw cycles ([2]; 100 ng/ml): 85.2% | Remain, −80°C for 1 month [2]: 109% | Remain, −80°C for 1 month ([2]; 1 ng/ml): 107% | Remain, −80°C for 1 month ([2]; 20 ng/ml): 113% | Remain, −80°C for 1 month ([2]; 100 ng/ml): 107% | Remain, autosampler for 24 h [2]: 87.6% | Remain, room temperature for 24 h [2]: 91.5% | Remain, autosampler for 24 h ([2]; 1 ng/ml): 90.8% | Remain, room temperature for 24 h ([2]; 1 ng/ml): 104% | Remain, autosampler for 24 h ([2]; 20 ng/ml): 114% | Remain, room temperature for 24 h ([2]; 20 ng/ml): 118% | Remain, autosampler for 24 h ([2]; 100 ng/ml): 87.4% | Remain, room temperature for 24 h ([2]; 100 ng/ml): 110% | Remain, working solution ([3]; 1 ng/ml): 98.8% | Remain, working solution ([3]; 20 ng/ml): 95.8% | Remain, working solution ([3]; 100 ng/ml): 101% | Remain, working solution [3, 4]: 96.3%
